Counter-ions that a name gives are not always drawn. Like-named read-outs stand apart in the source and are kept apart here. Blank lines part the entries; values can stand above or below the compound they belong to.
Columns and labels:
Fusarium proliferatum = test: Production of Fumonisin FB1 by Fusarium proliferatum (microtitre plate, FB1 by HPLC-MS/MS, growth by OD); type: cell-based; settings: for pI50 Fum: FB1 concentration in medium after 6 days at 20° C., HPLC-MS/MS; for pI50 growth: OD620 at the beginning and after 6 days
[1] = logP by HPLC on reversed-phase columns (C 18), EEC Directive 79/831 Annex V.A8; type: physicochemical; settings: for chromatographic logP: reversed-phase HPLC column (C 18)
[2] = method marker [b], footnote not given, compound 68 value matches logP (pH 2.3)
[3] = values marked [b], footnote not given
[4] = method marker [a], footnote not given
[5] = method marker [b] (compound 257: pH2.7)
[6] = values marked [c], footnote not given
[7] = pH 2.3, pH 2.3, 0.1% aqueous phosphoric acid and acetonitrile, read-out: logP [a]

Structure (SMILES): COCC(C)Nc1nc(Nc2ccc(OC)c(OC)c2)ncc1Br (centres unmarked) [Example 74]
pI50 Fum (Fusarium proliferatum): 4.6
pI50 growth (Fusarium proliferatum): <4.3
logP [1, 2]: 1.55[b]

Structure (SMILES): CC(C)Nc1nc(Nc2cccc(O)c2)ncc1Cl [Example 214]
pI50 Fum (Fusarium proliferatum): 6
pI50 growth (Fusarium proliferatum): <4.3
logP [1, 3]: 1.39[b]

Structure (SMILES): COc1cc(Nc2ncc(Cl)c(NCCO)n2)cc(OC)c1.Cl [Example 54]
logP [1, 4]: 1.26[a]

Structure (SMILES): COCC(C)Nc1nc(Nc2ccccc2)ncc1C(F)(F)F (centres unmarked) [Example 25]
logP [1, 4]: 2.96[a];
logP [1, 2]: 2.74[b]
logP ([1]; method marker [c], footnote not given): 3.52[c];

Structure (SMILES): COCC(C)Nc1nc(Nc2cc(Cl)cc(Cl)c2)ncc1Br (centres unmarked) [Example 114]
logP [1, 2]: 4.32[b]

Structure (SMILES): C=CCN(C)c1nc(Nc2ccccc2)ncc1Cl [Example 271]
logP [1, 5]: 2.66[b]
logP ([1]; method marker [c]): 4.03[c];

Structure (SMILES): C=CCNc1nc(Nc2ccccc2)ncc1Cl [Example 286]
logP [1, 5]: 1.64[b]
logP ([1]; method marker [c]): 3.1[c];

Structure (SMILES): CCC(COC)N(C)c1nc(Nc2ccccc2)ncc1Br (centres unmarked) [Example 232]
logP ([1]; values marked [a], pH 2.3): 2.23[a]

Structure (SMILES): COCC(C)Nc1nc(Nc2ccc3c(c2)OC(F)(F)C(F)(F)O3)ncc1Br (centres unmarked) [Example 75]
logP [1, 2]: 4.08[b]

Structure (SMILES): COCC(C(C)C)N(C)c1nc(Nc2ccccc2)ncc1Br (centres unmarked) [Example 231]
logP ([1]; values marked [a], pH 2.3): 2.47[a]

Structure (SMILES): CCC(CO)Nc1nc(Nc2ccc(N3CCN(C(=O)OC(C)(C)C)CC3)cc2)ncc1Cl (centres unmarked) [Example 23]
logP [1, 4]: 2.02[a]

Structure (SMILES): COCC(C)Nc1nc(Nc2ccc(C(=O)NC(C)(C)C)cc2)ncc1Cl (racemic) [Example 137]
logP [1, 3]: 2.06[b]

Structure (SMILES): Clc1cccc(Nc2ncc(Cl)c(NC3CCCCC3)n2)c1 [Example 258]
logP [1, 5]: 3.81[b]

Structure (SMILES): CC(C)Nc1nc(Cl)ncc1Br [Example V-10, 5-bromo-2-chloro-N-(propan-2-yl)pyrimidine-4-amine]
chromatographic logP [1, 7]: 2.62

Structure (SMILES): COCCNc1nc(Nc2cc(OC)cc(OC)c2)ncc1Cl.Cl [Example 62]
logP [1, 4]: 1.67[a];
logP [1, 2]: 1.67[b]

Structure (SMILES): CC(C)=CCNc1nc(Nc2ccccc2)ncc1Cl [Example 289]
logP [1, 5]: 2.17[b]

Structure (SMILES): CC(C)CCNc1nc(Cl)ncc1Cl [Example V-22, 2,5-dichloro-N-(3-methylbutyl)pyrimidine-4-amine]
chromatographic logP [1, 7]: 3.45

Structure (SMILES): CCN(CC)c1nc(Nc2ccccc2)ncc1Cl [Example 60]
logP [1, 4]: 2.29[a]

Structure (SMILES): CSCC(C)Nc1nc(Cl)ncc1Cl (centres unmarked) [Example V-6, 2,5-dichloro-N-[1-(methylsulphanyl)propan-2-yl]pyrimidine-4-amine]
chromatographic logP [1, 7]: 2.73

Structure (SMILES): CCC(=O)c1ccc(Nc2ncc(Br)c(NC(C)COC)n2)cc1 (centres unmarked) [Example 78]
logP [1, 2]: 2.57[b]

Structure (SMILES): CC(NS(=O)(=O)Cc1cccc(N)c1)c1ccccc1 (centres unmarked) [IV-7, 1-(3-aminophenyl)-N-(1-phenylethyl)methanesulphonamide]
chromatographic logP [1, 7]: 1.53

Structure (SMILES): COCC(C)Nc1nc(Nc2ccc(OC(F)(F)C(F)F)cc2)ncc1Cl (centres unmarked) [Example 158]
logP [1, 3]: 2.61[b]

Structure (SMILES): CC(C)Nc1nc(Nc2ccc(C(=O)N(C)C)cc2)ncc1Br [Example 245]
logP [1, 5]: 1.54[b]

Structure (SMILES): COCC(C)Nc1nc(Nc2ccc(OC)nc2)ncc1Br (centres unmarked) [II-1]
logP [b] ([1]; LC-MS, pH 2.7, 0.1% aqueous formic acid and acetonitrile): 1.52[b]
logP [a] ([1]; pH 2.3, 0.1% aqueous phosphoric acid and acetonitrile): 1.53[a];

Structure (SMILES): CC(C)(C)Nc1nc(Cl)ncc1Cl [Example V-17, N-t-butyl-2,5-dichloropyrimidine-4-amine]
chromatographic logP [1, 7]: 3.22

Structure (SMILES): CSCCNc1nc(Nc2ccccc2)ncc1Cl [Example 293]
logP [1, 5]: 1.75[b]

Structure (SMILES): COCC(C)Nc1nc(Nc2ccc(C(=O)Nc3ccccc3)cc2)ncc1Br (racemic) [Example 126]
logP [1, 3]: 1.92[b]

Structure (SMILES): COCC(C)Nc1nc(Nc2ccc(OC(F)(F)F)c(Cl)c2)ncc1Br (centres unmarked) [Example 118]
logP [1, 2]: 4.23[b]

Structure (SMILES): CC(C)Nc1nc(Nc2cccc(CC#N)c2)ncc1Cl [Example 236]
logP [1, 6]: 1.69[c]

Structure (SMILES): CCC(=O)N(C)c1cccc(N)c1 [IV-9, N-(3-aminophenyl)-N-methylpropanamide]
chromatographic logP [1, 7]: 0.63

Structure (SMILES): CCCN(C)c1nc(Nc2ccccc2)ncc1Cl [Example 272]
logP [1, 5]: 2.55[b]
logP ([1]; method marker [c]): 4.35[c];

Structure (SMILES): CCC(C)CNc1nc(Cl)ncc1Cl (centres unmarked) [Example V-24, 2,5-dichloro-N-(2-methylbutyl)pyrimidine-4-amine]
chromatographic logP [1, 7]: 3.42

Structure (SMILES): CSCCNc1nc(Nc2ccccc2)ncc1C#N [Example 67]
logP [1, 2]: 2.6[b]

Structure (SMILES): CC(C)(C)OC(=O)N1CCN(c2ccc(Nc3ncc(Cl)c(NC4CCCCC4)n3)cc2)CC1 [Example 264]
logP [1, 5]: 2.95[b]

Structure (SMILES): COCCNc1nc(Nc2ccc(OC(C)C)cc2)ncc1Cl [Example 12]
logP [1, 4]: 1.78[a]

Structure (SMILES): CCN(c1nc(Cl)ncc1Cl)C(C)C [Example V-30, 2,5-dichloro-N-ethyl-N-isopropylpyrimidine-4-amine]
chromatographic logP [1, 7]: 3.8

Structure (SMILES): COCC(C)Nc1nc(Nc2ccc(N(C(C)=O)C3CCCCC3)cc2)ncc1Cl (centres unmarked) [Example 161]
logP [1, 3]: 2.33[b]

Structure (SMILES): O=[N+]([O-])c1cccc(CS(=O)(=O)NCc2ccccc2)c1 [IV-4, N-(benzyl)-1-(3-nitrophenyl)methanesulphonamide]
chromatographic logP [1, 7]: 2.43

Structure (SMILES): COCC(C)Nc1nc(Nc2cccc(NC(C)=O)c2)ncc1Br (centres unmarked) [Example 80]
logP [1, 2]: 1.11[b]

More lines, now with the values ahead:

logP [1, 2]: 1.48[b]
Structure (SMILES): COCC(C)Nc1nc(Nc2ccc3c(c2)CCN3C(C)=O)ncc1Cl (centres unmarked) [Example 107]

logP [1, 3]: 2.33[b]
Structure (SMILES): COCC(Nc1nc(Nc2ccccc2)ncc1Cl)C(C)C (centres unmarked) [Example 176]

logP [1, 3]: 1.92[b]
logP [1, 6]: 3.46[c];
Structure (SMILES): CCNc1nc(Nc2cccc(SC)c2)ncc1Cl [Example 238]

logP [1, 3]: 1.1[b]
Structure (SMILES): CNc1nc(Nc2cccc(CC#N)c2)ncc1Cl [Example 235]

logP [1, 2]: 2.77[b]
Structure (SMILES): COCC(C)Nc1nc(Nc2ccc(SC)c(Cl)c2)ncc1Cl (centres unmarked) [Example 89]

logP [1, 3]: 2.99[b]
logP [1, 6]: 4.32[c];
Structure (SMILES): CCN(C)c1nc(Nc2cccc(SC)c2)ncc1Cl [Example 239]

logP [1, 3]: 2.08[b]
Structure (SMILES): CC(C)Nc1nc(Nc2cccc(S(=O)(=O)N3CCCCC3)c2)ncc1Cl [Example 198]

logP [1, 3]: 1.86[b]
Structure (SMILES): COc1cccc(Nc2ncc(Cl)c(NC(C)C)n2)c1 [Example 182]

logP [1, 3]: 1.83[b]
Structure (SMILES): COCC(C)Nc1nc(Nc2cccc(NC(=O)C(C)(C)CF)c2)ncc1Cl (centres unmarked) [Example 166]

logP [1, 2]: 2.23[b]
Structure (SMILES): COCC(C)Nc1nc(Nc2ccc(Cl)c(S(C)(=O)=O)c2)ncc1Br (centres unmarked) [Example 76]

logP [1, 3]: 1.81[b]
Structure (SMILES): CC(C)Nc1nc(Nc2ccc(NC(=O)C(C)(C)C)cc2)ncc1Cl [Example 188]

chromatographic logP ([1]; method marker [c], footnote not given, read-out: logP): 3.05
chromatographic logP ([1]; pH 2.3, method marker [a], footnote not given, read-out: logP): 2.31
chromatographic logP [1, 7]: 2.31
Structure (SMILES): COCC(C)Nc1nc(Nc2ccc(C(=O)OC)cc2)ncc1Cl (centres unmarked) [Example 38, Methyl 4-({5-chloro-4-[(1-methoxypropan-2-yl)amino]pyrimidin-2-yl}amino)benzene-carboxylate hydrochloride]

logP [1, 4]: 2.08[a]
Structure (SMILES): CC(C)Nc1nc(Nc2cccc(S(=O)(=O)N(C)C)c2)ncc1Cl [Example 47]

logP [1, 5]: 2.4[b]
Structure (SMILES): CC(C)Nc1nc(Nc2cccc(C(F)F)c2)ncc1Cl [Example 281]

logP ([1]; method marker [a]): 2.53[a]
Structure (SMILES): CC(=O)c1cccc(Nc2ncc(Cl)c(NC3CCCCC3)n2)c1 [Example 262]

logP [1, 4]: 1.69[a]
Structure (SMILES): COCC(C)Nc1nc(Nc2ccc(OC(C)C)cc2)ncc1Cl (centres unmarked) [Example 8]

logP ([1]; values marked [a], pH 2.3): 2.27[a]
Structure (SMILES): CSc1cccc(Nc2ncc(Cl)c(NCC#N)n2)c1 [Example 221]

logP [1, 3]: 1.68[b]
Structure (SMILES): COCC(C)Nc1nc(Nc2cccc(NC(=O)C(C)C)c2)ncc1Cl (centres unmarked) [Example 156]

logP [1, 2]: 1.56[b]
Structure (SMILES): COCC(C)Nc1nc(Nc2ccc3c(c2)OCO3)ncc1Cl (centres unmarked) [Example 97]

logP [1, 2]: 1.75[b]
Structure (SMILES): COCC(C)Nc1nc(Nc2ccc3sc(C)nc3c2)ncc1Cl (centres unmarked) [Example 105]

logP [1, 3]: 1.91[b]
Structure (SMILES): CC(C)Nc1nc(Nc2cccc(NC(=O)C(C)(C)C)c2)ncc1Cl [Example 197]

logP [1, 5]: 1.76[b]
logP ([1]; method marker [c]): 2.89[c];
Structure (SMILES): CCC(=O)N(C)c1cccc(Nc2ncc(Cl)c(NC(C)C)n2)c1 [Example 290]

logP [1, 3]: 1.39[b]
Structure (SMILES): COCC(C)Nc1nc(Nc2ccc(O)c(C)c2)ncc1Cl (centres unmarked) [Example 171]

logP [1, 3]: 1.85[b]
Structure (SMILES): COCC(C)Nc1nc(Nc2ccc(S(C)(=O)=O)cc2)ncc1Cl (racemic) [Example 145]

logP [1, 2]: 1.78[b]
Structure (SMILES): COCC(C)Nc1nc(Nc2cccc(OC)c2)ncc1Cl (centres unmarked) [Example 85]

logP [1, 3]: 1.32[b]
Structure (SMILES): CNC(=O)c1cccc(Nc2ncc(Cl)c(NC(C)COC)n2)c1 (racemic) [Example 142]

logP [1, 5]: 3[b]
Structure (SMILES): CCN(c1nc(Nc2ccccc2)ncc1Cl)C(C)C [Example 269]

logP [1, 5]: 1.84[b]
logP ([1]; method marker [c]): 3.13[c];
Structure (SMILES): CC(C)Nc1nc(Nc2cccc(CC#N)c2)ncc1Br [Example 246]

logP [1, 4]: 1.98[a]
Structure (SMILES): CN(C)c1nc(Nc2ccc(S(C)(=O)=O)cc2)ncc1Cl [Example 28]

logP [1, 5]: 2.34[b]
Structure (SMILES): CCC(CC)Nc1nc(Nc2ccccc2)ncc1Cl [Example 275]

logP [1, 4]: 2.38[a]
Structure (SMILES): COCC(C)Nc1nc(Nc2ccc(C(C)C)cc2)ncc1Cl (centres unmarked) [Example 9]

logP [1, 3]: 1.53[b]
Structure (SMILES): COC(=O)Nc1ccc(Nc2ncc(Cl)c(NC(C)C)n2)cc1 [Example 201]

logP [1, 2]: 1.48[b]
Structure (SMILES): COCC(C)Nc1nc(Nc2ccc(N(C)C(C)=O)cc2)ncc1Cl (centres unmarked) [Example 99]

logP [1, 5]: 2.14[b]
Structure (SMILES): C[Si](C)(C)CNc1nc(Nc2ccccc2)ncc1Cl [Example 287]

logP [1, 3]: 1.71[b]
Structure (SMILES): CC(C)Nc1nc(Nc2ccc(NC(=O)C3(C)CC3)cc2)ncc1Cl [Example 194]

logP [1, 4]: 2.96[a]
Structure (SMILES): CC(C)N(C)c1nc(Nc2cccc(S(=O)(=O)N(C)C)c2)ncc1Cl [Example 43]

logP [1, 4]: 2.58[a]
Structure (SMILES): COCC(C)Nc1nc(Nc2cccc(Cl)c2)ncc1Cl (centres unmarked) [Example 10]

logP [1, 2]: 1.56[b]
Structure (SMILES): COCC(C)Nc1nc(Nc2ccc(OC)cc2)ncc1Cl (centres unmarked) [Example 86]

logP [1, 4]: 2.09[a]
Structure (SMILES): COCCNc1nc(Nc2ccc(C(C)C)cc2)ncc1Cl [Example 11]

Reference: patent US20110230478A1 (Bayer ScienceCrop AG, priority 2008, published 2011)
